Square brackets hold non-standard residues; d marks the D form. Peptide text beside a SMILES is read from it. * marks the point of attachment. Dolaproine = CO[C@@H]([C@@H]1CCCN1)[C@@H](C)C(=O)O; Dil = CC[C@H](C)[C@H](NC)[C@@H](CC(=O)O)OC; X1 = C[C@@H](N*)[C@@H](O)c1ccccc1; NMeV = CN[C@H](C(=O)O)C(C)C
Legend:
HeLa KRas^V12 cells = experiment: Macropinocytic uptake of fluorescently labeled non-binding FN domain, co-localization with TMR-dextran (doxycycline-inducible system); format: cell-based, human
From the text: (§1) FIG. 2A and FIG. 2B show the uptake of the fluorescently-tagged monobody and MP marker in human PDAC MIA PaCa and HeLa or HeLa KRas^V12 cells. Co-localization of the fluorescently-tagged monobody (green) and MP marker (dextran, red) in. DAPI, blue. Boxed region is enlarged, inset.
(§2) To determine if non-binding FN domains could be internalized, a well-established doxycycline-inducible mutant KRas^V12 HeLa cell system (hereafter, HeLa KRas^V12) was used in which macropinocytosis is monitored by high-molecular-weight (70 kDa) tetramethyl-rhodamine labeled (TMR−) dextran.

KPC 1203 cells = experiment: Macropinocytic uptake, co-localization with dextran; format: cell-based, mouse
[1] = system: mutant KRas PDAC cell line MIA PaCa-2; experiment: as above; format: cell-based, human
From the text: as §1, §2

[2] = system: KMS11 WT Ras, L363 Mutant NRAS, and RPMI 8226 Mutant KRas cells; experiment: Uptake of fluorescently-tagged monobody and MP marker in multiple myeloma cell lines; format: cell-based, human
From the text: FIGS. 14A-14C show uptake of fluorescently-tagged monobody and MP marker in human multiple myeloma cancer cell lines. FIGS. 14A and 14B are images showing co-localization of the fluorescently-tagged monobody (red) and MP marker (dextran, green) in KMS11 WT Ras, L363 Mutant NRAS, and RPMI 8226 Mutant KRas cells. DAPI, blue.
The differential uptake was established not only in cell lines of solid tumors, but also in blood cancer such as multiple myeloma. […] Using a similar system to the HeLa KRas^V12 inducible system, we created an inducible KRas^V12 cell system in wild type KRas KMS11 multiple myeloma cells.

[3] = Ex vivo organ toxicity analysis (H&E, apoptotic markers, tubulin staining) of MIA PaCa tumor bearing mice; format: in vivo
Description: FIGS. 5A-5B show the enhanced toxicity of FN-MMAE (monobody) in oncogenic KRas cell lines in vivo. In FIG. 5A, established (100-150 mm^3) subcutaneous MiaPaCa and BxPC3 tumors were treated with, PBS (negative control), 0.2 mg/kg of MMAE alone, or 0.2 mg/kg of FN-MMAE non-binding protein conjugate on Days 0, 7, and 14 (yellow arrows). Tumor growth as assessed by volume was slower in FN-MMAE treated animals compared to MMAE treated alone. n=4 per treatment group. Error bars represent SEM of tumor volume.
FIGS. 6A-6B show ex vivo analysis and mode of action of MMAE.
To test the effects in vivo, a MIA PaCa-2 subcutaneous tumor model was used to compare the efficacy of PBS, MMAE, and FN-MMAE (FIG. 5A). After tumors were established, three injections of 0.2 mg/kg drug with respect to MMAE concentration was administered every 7 days. […] This highlights the specificity of reduced uptake by non-macropinocytic cells in relation to free drug, which contributes to the selective effect of the non-binding FN domain-drug conjugate.

SMILES: CCN(c1nc(N)c(C(=O)NC(=N)N)nc1Cl)C(C)C [EIPA]
- effect of macropinocytosis inhibitor on FN domain and dextran uptake (HeLa KRas^V12 cells): blocked both non-binding FN domain and dextran uptake
- effect of macropinocytosis inhibitor on uptake of dextran and FN-Cy5.5 (KPC 1203 cells): abolished uptake of both macromolecules
- effect of macropinocytosis inhibitor on uptake of dextran and FN-Cy5.5 [1]: abolished uptake of both macromolecules
- effect of macropinocytosis inhibitor on FN-Cy5.5 uptake [2]: abolished

SMILES: CC(Sc1nc2ccccc2[nH]1)C(=O)N/N=C/c1cc(Br)ccc1O (centres unmarked) [KH7]
- effect of macropinocytosis inhibitor on FN-Cy5.5 uptake [2]: abolished

SMILES: CC[C@H](C)[C@@H]([C@@H](CC(=O)N1CCC[C@H]1[C@H](OC)[C@@H](C)C(=O)N[C@H](C)[C@@H](O)c1ccccc1)OC)N(C)C(=O)[C@@H](NC(=O)[C@@H](NC)C(C)C)C(C)C [MMAE, monomethyl auristatin E] (H-[NMeV]V[Dil][Dolaproine]-X1)
- H&E of ex vivo organs ([3]; MIA PaCa tumor bearing mice): visual liver damage
- tubulin staining ([3]; kidneys): drastically reduced
- apoptotic marker expression (CC3, HMGB1, cleaved Parp1) ([3]; kidneys, compared to PBS): substantial increase in non-specific toxicity
